US20250213644A1, “COMPOSITIONS AND METHODS FOR TREATMENT OF BONE-RELATED DISEASE OR DISORDER” (priority 2021, published 2025)

Assays:
[1] = system: New-born mouse calvarial osteoblasts; experiment: Osteoblast proliferation assay (cell counts), WT and CB2−/− mouse-derived cultures
[2] = system: human osteoblasts; experiment: Human osteoblast proliferation assay with or without SR144528; details: with CB2-selective antagonist SR144528
[3] = system: newly formed bone; details: rats, after 6 to 8 weeks of treatment; cited from earlier work
[4] = system: OVX-induced bone loss; experiment: Rescue of OVX-induced bone loss, μCT of femora; type: in vivo, mouse
[5] = molecular target: CB2 (Homo sapiens, UniProt P34972); details: increasing concentrations of 5aa-OGP; CHO-CB2-derived membranes
[6] = system: Ti particle-induced osteolysis; experiment: Calvarial osteolysis model, Ti particle-induced osteolysis, μCT; type: in vivo, mouse; details: fibrin membranes with Ti particles loaded with 10^−11M 5aa-OGP on mice calvaria; 4 weeks post-op
Excerpt: FIGS. 5A-5C show the effect of topically administered 5aa-OGP on Ti particle-induced osteolysis in vivo: Fibrin membranes including titanium particles derived from sand-blasted Ti implants, with 5aa-OGP (TiP+5aa-OGP) or with saline (TiP) were implanted onto mice calvaria. Membranes with no TiP were inserted in the control group. Mice were sacrificed 4 weeks post-op. and subjected to CT analysis. FIG. 5A—Pit Resorption Volume over total volume (PR.V/TV), FIG. 5B—Bone volume in the region of interest, chiefly representing the calvarial thickness), and FIG. 5C—Representative CT images of the calvaria. Data are expressed as mean±SD (n=4). *p<0.05 vs. Titanium.
Calvarial Osteolysis Model. To test the direct effect of Ti particles on inflammation-induced osteolysis in vivo, a mouse calvaria model and μCT analysis specifically designed in our laboratory was used. […]
μCT analysis—All specimens were scanned and analyzed using a μCT system (CT 50, Scanco Medical AG, Switzerland). […]
A custom-made algorithm based on Image-Processing Language (IPL, Scanco Medical) was developed to isolate the resorption pits, defined as unmineralized pits that were […] deep on the bone surface. The measured resorption volume was limited to a […] depth because beyond that, the resorption pit was connected to the internal diploe. […]

[7] = system: age-related bone loss; experiment: Prevention of age-related bone loss in male mice, μCT; type: in vivo, mouse; details: male mice treated from 3 to 6 months of age
[8] = mouse-derived osteoblast cultures, 48-hour incubation
[9] = WT OVX mice, 10 ng/day s.c. for 6 weeks

CB2, sequence (P34972 whole entry): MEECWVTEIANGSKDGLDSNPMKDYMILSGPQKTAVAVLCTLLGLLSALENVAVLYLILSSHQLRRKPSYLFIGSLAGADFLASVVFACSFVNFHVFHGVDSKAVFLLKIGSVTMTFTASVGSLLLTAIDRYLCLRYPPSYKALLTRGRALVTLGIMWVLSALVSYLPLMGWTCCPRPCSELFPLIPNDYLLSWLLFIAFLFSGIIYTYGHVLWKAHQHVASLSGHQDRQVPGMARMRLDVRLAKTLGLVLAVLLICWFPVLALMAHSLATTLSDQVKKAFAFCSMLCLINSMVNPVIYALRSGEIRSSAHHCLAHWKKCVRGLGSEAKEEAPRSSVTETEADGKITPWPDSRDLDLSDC

Compound | Osteoblastic proliferative activity [1, 8] | Proliferative effect in human osteoblasts [2] | Quality and biomechanical properties (e.g. bone strength) of the newly formed bone [3] | Any of the measured bone parameters ([4]; OVX CB2−/− animals, 10 ng/day s.c. for 6 weeks) | Cortical bone parameters [4, 9] | Trabecular number (Tb.N) [4, 9] | Trabecular thickness (Tb.Th) [4, 9] | Trabecular volumetric bone mineral density (vBMD) [4, 9] | Trabecular bone volume fraction (BV/TV), change vs. OVX, VEH-treated mice ([4]; WT OVX mice, 10 ng/day s.c. once a day for 6 weeks, starting 6 weeks post-OVX, p=0.035) | Displacement of tritiated CP55,940 [5] | Bone volume in the calvaria (region of interest) [6] | Ti particle-induced osteolysis (Pit Resorption Volume over total volume, PR.V/TV) [6] | Osteoblastic proliferative activity ([1]; CB2−/−-derived murine osteoblasts (genetic ablation of CB2)) | Trabecular connectivity density [7] | Trabecular number [7] | Trabecular thickness [7]
CCCCCCC(C)(C)c1cc(OC)c(C2=C[C@H]3CC[C@]2(CO)C3(C)C)c(OC)c1 [HU-910, reference compound] | nearly an identical dose response relationship | abrogated | – | – | – | – | – | – | – | – | – | – | – | – | – | –
C=C(C)[C@@H]1CCC(C)=C[C@H]1c1c(O)cc(CCCCC)cc1O [CBD, Cannabidiol] | – | – | enhanced | – | – | – | – | – | – | – | – | – | – | – | – | –
YGFGG (listed as Homo sp.) [5aa-OGP] | nearly an identical dose response relationship | abrogated | – | no effect | did not affect | significant increases | significant increases | significant increases | +45.9% | did not displace CP55,940 | increased bone volume | completely prevented this bone loss | completely abrogated | significantly increased | significantly increased | significantly increased
